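1) Cells in 96-well plates. 2) Compound, 48 h, 5 concentrations. 3) Linear interpolation between surrounding doses. 4) Unreached endpoint = highest concentration. GI50 marks 50% less growth. TGI: total growth inhibition.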
Columns and labels:
Test in all cases: DTP human tumour cell line panel, 48 h
A498 renal = system: A498 renal
HCT-15 colon = system: HCT-15 colon
HOP-62 NSCLC = system: HOP-62 NSCLC
IGROV1 ovarian = system: IGROV1 ovarian
LOX IMVI melanoma = system: LOX IMVI melanoma
NCI-H460 lung = system: NCI-H460 lung
OVCAR-5 ovarian = system: OVCAR-5 ovarian
SK-OV-3 ovarian = system: SK-OV-3 ovarian
SNB-75 CNS = system: SNB-75 CNS
UACC-62 melanoma = system: UACC-62 melanoma

CCc1ccc(/C=C2/SC(=S)NC2=O)cc1
GI50 (A498 renal): 6.15 µM
TGI (A498 renal): 36.4 µM
GI50 (HCT-15 colon): 16.9 µM
TGI (HCT-15 colon): 39.8 µM
GI50 (HOP-62 NSCLC): 25.7 µM
TGI (HOP-62 NSCLC): 78.2 µM
GI50 (IGROV1 ovarian): 37.5 µM
TGI (IGROV1 ovarian): > 100 µM
GI50 (LOX IMVI melanoma): 22.4 µM
TGI (LOX IMVI melanoma): > 71.5 µM
GI50 (NCI-H460 lung): 20.7 µM
TGI (NCI-H460 lung): 54.8 µM
GI50 (OVCAR-5 ovarian): 24.1 µM
TGI (OVCAR-5 ovarian): 90.6 µM
GI50 (SK-OV-3 ovarian): 24.6 µM
TGI (SK-OV-3 ovarian): 74.9 µM
GI50 (SNB-75 CNS): 21.7 µM
TGI (SNB-75 CNS): > 100 µM
GI50 (UACC-62 melanoma): 12.3 µM
TGI (UACC-62 melanoma): 28.9 µM

C=C1C(=O)C23C(CC(OC(C)=O)C1[C@@H]2OC(C)=O)C1(C)C(OC(C)=O)CCC(C)(C)C1C[C@@H]3OC(C)=O (stereo not given in full)
TGI (A498 renal): 3.4 µM
TGI (HCT-15 colon): 2.52 µM
TGI (HOP-62 NSCLC): 7.98 µM
TGI (IGROV1 ovarian): 2.87 µM
TGI (LOX IMVI melanoma): 2.63 µM
TGI (NCI-H460 lung): 3.37 µM
TGI (OVCAR-5 ovarian): 3.27 µM
TGI (SK-OV-3 ovarian): 3.59 µM
TGI (SNB-75 CNS): 2.89 µM
TGI (UACC-62 melanoma): 3.72 µM

COc1cc(Nc2ncc(-c3ccccc3)o2)cc(OC)c1OC
GI50 (A498 renal): 0.607 µM
TGI (A498 renal): > 7.47 µM
GI50 (HCT-15 colon): 0.547 µM
TGI (HCT-15 colon): > 25 µM
GI50 (HOP-62 NSCLC): 3.47 µM
TGI (HOP-62 NSCLC): > 25 µM
GI50 (IGROV1 ovarian): 1.28 µM
TGI (IGROV1 ovarian): > 25 µM
GI50 (LOX IMVI melanoma): 2.14 µM
TGI (LOX IMVI melanoma): > 25 µM
GI50 (NCI-H460 lung): 0.161 µM
TGI (NCI-H460 lung): > 25 µM
GI50 (OVCAR-5 ovarian): 3.88 µM
TGI (OVCAR-5 ovarian): > 25 µM
GI50 (SK-OV-3 ovarian): 2.89 µM
TGI (SK-OV-3 ovarian): > 25 µM
GI50 (SNB-75 CNS): 0.577 µM
TGI (SNB-75 CNS): > 19.2 µM
GI50 (UACC-62 melanoma): 2.24 µM
TGI (UACC-62 melanoma): > 25 µM

NC(=NC1C2CC3CC(C2)CC1C3)Nc1ccc(I)cc1 (stereo not given)
GI50 (A498 renal): 2.47 µM
TGI (A498 renal): 6.77 µM
GI50 (HCT-15 colon): 2.88 µM
TGI (HCT-15 colon): 10.2 µM
GI50 (HOP-62 NSCLC): 2.46 µM
TGI (HOP-62 NSCLC): 8.38 µM
GI50 (IGROV1 ovarian): 3.2 µM
TGI (IGROV1 ovarian): 13.5 µM
GI50 (LOX IMVI melanoma): 1.78 µM
TGI (LOX IMVI melanoma): 3.51 µM
GI50 (NCI-H460 lung): 3.66 µM
TGI (NCI-H460 lung): 13 µM
GI50 (OVCAR-5 ovarian): 4.5 µM
TGI (OVCAR-5 ovarian): 21.7 µM
GI50 (SK-OV-3 ovarian): 8.68 µM
TGI (SK-OV-3 ovarian): 23.3 µM
GI50 (SNB-75 CNS): 2.09 µM
TGI (SNB-75 CNS): 15.7 µM
GI50 (UACC-62 melanoma): 2.88 µM
TGI (UACC-62 melanoma): 9.33 µM

O=C(O)CNS(=O)(=O)c1ccc(NC(=O)c2cccc([N+](=O)[O-])c2)cc1
TGI (A498 renal): > 100 µM
TGI (HCT-15 colon): > 100 µM
TGI (IGROV1 ovarian): > 100 µM
TGI (LOX IMVI melanoma): > 100 µM
TGI (NCI-H460 lung): > 100 µM
TGI (OVCAR-5 ovarian): > 100 µM
TGI (SK-OV-3 ovarian): > 100 µM
TGI (SNB-75 CNS): > 100 µM
TGI (UACC-62 melanoma): > 100 µM

COCCn1cc(-c2csc(-c3c[nH]c4ccc(F)cc34)n2)c2cccnc21
GI50 (A498 renal): 3.26 µM
TGI (A498 renal): 9.4 µM
GI50 (HCT-15 colon): 2.35 µM
TGI (HCT-15 colon): > 100 µM
GI50 (HOP-62 NSCLC): 2.02 µM
TGI (HOP-62 NSCLC): > 100 µM
GI50 (IGROV1 ovarian): 3.49 µM
TGI (IGROV1 ovarian): > 100 µM
GI50 (LOX IMVI melanoma): 3.44 µM
TGI (LOX IMVI melanoma): > 100 µM
GI50 (NCI-H460 lung): 3.38 µM
TGI (NCI-H460 lung): > 100 µM
GI50 (OVCAR-5 ovarian): 10.1 µM
TGI (OVCAR-5 ovarian): > 100 µM
GI50 (SNB-75 CNS): 2.97 µM
TGI (SNB-75 CNS): > 100 µM
GI50 (UACC-62 melanoma): 6.78 µM
TGI (UACC-62 melanoma): > 100 µM

COc1cc(C=NCC(=O)CSC(c2ccccc2)c2ccccc2)cc(OC)c1OC
GI50 (A498 renal): 5.98 µM
TGI (A498 renal): 38 µM
GI50 (HCT-15 colon): 21.5 µM
TGI (HCT-15 colon): > 100 µM
GI50 (HOP-62 NSCLC): 33.2 µM
TGI (HOP-62 NSCLC): > 100 µM
GI50 (LOX IMVI melanoma): 23.1 µM
TGI (LOX IMVI melanoma): > 100 µM
GI50 (NCI-H460 lung): 13 µM
TGI (NCI-H460 lung): > 100 µM
GI50 (OVCAR-5 ovarian): 63.5 µM
TGI (OVCAR-5 ovarian): > 100 µM
GI50 (SK-OV-3 ovarian): 23.3 µM
TGI (SK-OV-3 ovarian): 76 µM
GI50 (SNB-75 CNS): 25.5 µM
TGI (SNB-75 CNS): > 100 µM
GI50 (UACC-62 melanoma): 19.2 µM
TGI (UACC-62 melanoma): > 100 µM

Source: PubChem BioAssay (NCI)
